Active and inactive are the calls of the source. No rule for the calls is given here.
Molecular target: Ribonuclease H1 (Homo sapiens) (UniProt O60930)
Assay: human RNase H1 inhibitors, dose response, biochemical, FRET RNA/DNA duplex cleavage (AID 366);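 also: potency is for inhibitors that lower RNA cleavage and so lower fluorescence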
Conditions: fluorescence

Ribonuclease H1 (Homo sapiens), sequence (O60930 whole entry, looked up): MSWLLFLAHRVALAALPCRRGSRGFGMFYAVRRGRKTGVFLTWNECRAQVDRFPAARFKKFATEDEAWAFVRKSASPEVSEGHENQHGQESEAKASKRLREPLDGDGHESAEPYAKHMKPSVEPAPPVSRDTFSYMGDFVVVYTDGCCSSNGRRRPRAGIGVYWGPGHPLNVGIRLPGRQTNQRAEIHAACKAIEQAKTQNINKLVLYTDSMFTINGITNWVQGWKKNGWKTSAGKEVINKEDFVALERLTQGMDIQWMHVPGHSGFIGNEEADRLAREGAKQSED

Row | IC50 | Structure (SMILES)
1 | inactive | COc1ccc2c(c1)N(C(=O)CN1C(=O)c3ccccc3C1=O)C(C)(C)c1ssc(=S)c1-2
2 | 1.1 µM | COc1ccc(-c2c(C#N)c(N)nc(SCC(=O)c3ccc(O)c(O)c3)c2C#N)cc1
